Read-outs that look alike come from different tables or passages of the source.
System: Onchocerca gutturosa Adult Male Worms
Assay: Onchocerciasis in vitro screening model, worm motility score
Type: cell-based
Settings: read-out: O. gutturosa activity level (IC50 or MED)
[1] = Onchocerca gutturosa, Table 1 O. gutturosa, levels A/B/C, motility or MTT readout not specified
[2] = in vitro, Onchocerca gutturosa adult male worms, class A/B/C

Row | IC50 [1] [nM] | IC50 [2] [nM] | SMILES
1 | 500 to 5000 |  | CC(C)Oc1cc(-c2nsc(Nc3ncccc3N(C)C)n2)ncc1C(F)(F)F [Compound 147, N2-(3-(4-isoprop-oxy-5-(trifluoromethyl)pyridin-2-yl)-1,2,4-thiadiazol-5-yl)-N3,N3-dimethyl-pyridine-2,3-diamine]
2 | < 200 |  | CCN(c1nc(-c2ccc(OC(C)C)cn2)ns1)c1ncccc1C [Compound 131, N-ethyl-3-(5-isopropoxy-pyridin-2-yl)-N-(3-methyl-pyridin-2-yl)-1,2,4-thiadiazol-5-amine]
3 |  | 200 to 500 | CC(=O)N(C)c1cnc(Nc2nc(-c3ccc(OC(C)C)cn3)ns2)c(C)c1 [Compound 297, N-(6-(3-(5-isopropoxypyridin-2-yl)-1,2,4-thiadiazol-5-ylamino)-5-methylpyridin-3-yl)-N-methylacetamide]
4 |  | < 200 | CN(C)C(=O)c1cc(C(F)(F)F)cnc1Nc1nc(-c2cc3c(cn2)N(C)C(C)(C)C3)ns1 [Compound 293, N,N-dimethyl-5-(trifluoromethyl)-2-(3-(1,2,2-trimethyl-2,3-dihydro-1H-pyrrolo[2,3-c]pyridin-5-yl)-1,2,4-thiadiazol-5-ylamino) nicotinamide]
5 | 500 to 5000 |  | FC(F)(F)c1ccnc(-c2nsc(Nc3cc(N4CCCC4)ccn3)n2)c1 [Compound 99, N-(4-(pyrrolidin-1-yl)pyridin-2-yl)-3-(4-(trifluoromethyl)pyridin-2-yl)-1,2,4-thiadiazol-5-amine]
6 |  | 500 to 5000 | CC(=O)N(C)c1cc(C(F)(F)F)cnc1Nc1nc(-c2ncc(OC(C)C)cn2)ns1 [Compound 316, N-(2-(3-(5-isopropoxy-pyrimidin-2-yl)-1,2,4-thiadiazol-5-ylamino)-5-(trifluoromethyl)pyridin-3-yl)-N-methylacetamide]
7 | 500 to 5000 |  | O=C(NCC1CC1)c1ccc(Nc2nc(-c3ccc(OC4CC4)cn3)ns2)nc1 [Compound 106, 6-(3-(5-cyclo-propoxypyridin-2-yl)-1,2,4-thiadiazol-5-ylamino)-N-(cyclopropyl-methyl) nicotinamide]
8 | 500 to 5000 |  | CC(C)Oc1ccnc(-c2nc(Nc3cc(C(F)(F)F)c(C(C)C)cn3)nn2C)c1 [Compound 146, N-(5-(4-isoprop-oxypyridin-2-yl)-1-methyl-1H-1,2,4-triazol-3-yl)-5-isopropyl-4-(trifluoro-methyl) pyridin-2-amine]
9 |  | 500 to 5000 | CC(=O)N(C)c1cnc(Nc2nc(-c3cc(OC(C)C)ccn3)ns2)c(C)c1 [Compound 288, N-(6-(3-(4-isopropoxypyridin-2-yl)-1,2,4-thiadiazol-5-ylamino)-5-methylpyridin-3-yl)-N-methylacetamide]
10 |  | < 200 | CC(=O)N(C)c1nccnc1Nc1nc(-c2cc3ccn(C(C)C)c3cn2)ns1 [Compound 302, N-(3-(3-(1-isopropyl-1H-pyrrolo[2,3-c]pyridin-5-yl)-1,2,4-thiadiazol-5-ylamino)pyrazin-2-yl)-N-methylacetamide]
11 | < 200 |  | Cc1cccnc1Nc1nc(-c2ccc(OC3CCN(C4CC4)C[C@@H]3F)cn2)ns1 (stereo partly drawn) [Compound 92, 3-(5-((3S)-1-cyclopropyl-3-fluoro-piperidin-4-yloxy)pyridin-2-yl)-N-(3-methylpyridin-2-yl)-1,2,4-thiadiazol-5-amine]
12 | < 200 |  | CC(C)Oc1ccc(-c2nnc(Nc3ncccc3N(C)C)o2)nc1 [Compound 132, N2-(5-(5-isopropoxy-pyridin-2-yl)-1,3,4-oxadiazol-2-yl)-N3,N3-dimethyl-pyridine-2,3-diamine]
13 |  | 500 to 5000 | CC(=O)N(C)c1cnc(Nc2nc(-c3ncccc3OC(C)C)ns2)c(C(F)(F)F)c1 [Compound 279, N-(6-(3-(3-isopropoxy-pyridin-2-yl)-1,2,4-thiadiazol-5-ylamino)-5-(trifluoro-methyl)pyridin-3-yl)-N-methylacetamide]
14 | 500 to 5000 |  | COc1cccnc1Nc1nc(-c2ccc(OC3CCN(C4CC4)CC3(F)F)cn2)ns1 (centres unmarked) [Compound 129, 3-(5-(1-cyclopropyl-3,3-difluoro-piperidin-4-yloxy)pyridin-2-yl)-N-(3-methoxypyridin-2-yl)-1,2,4-thiadiazol-5-amine]
15 | < 200 |  | COc1ccnc(-c2nsc(Nc3ccc(OC(C)C)cn3)n2)c1 [Compound 184, N-(5-isoprop-oxypyridin-2-yl)-3-(4-methoxy-pyridin-2-yl)-1,2,4-thiadiazol-5-amine]
16 | 500 to 5000 |  | CC(C)Oc1cnc(-c2nsc(Nc3ncccc3N3CCCC3=O)n2)cc1C(=O)N(C)C [Compound 194, 5-isopropoxy-N,N-dimethyl-2-(5-(3-(2-oxopyrrolidin-1-yl)pyridin-2-ylamino)-1,2,4-thiadiazol-3-yl)isonicotin-amide]
17 |  | 500 to 5000 | CC(=O)N(C)c1cc(C(F)(F)F)cnc1Nc1nc(-c2cc3c(cn2)NC(=O)C3(C)C)ns1 [Compound 280, N-(2-(3-(3,3-dimethyl-2-oxo-2,3-dihydro-1H-pyrrolo[2,3-c]pyridin-5-yl)-1,2,4-thiadiazol-5-ylamino)-5-(trifluoromethyl)pyridin-3-yl)-N-methylacetamide]
18 |  | 500 to 5000 | COc1ccc(-c2nnc(Nc3cc(OC(C)C)ccn3)s2)nc1 [Compound 243, N-(4-isoprop-oxypyridin-2-yl)-5-(5-methoxy-pyridin-2-yl)-1,3,4-thiadiazol-2-amine]
19 | 500 to 5000 |  | CNC(=O)c1cccnc1Nc1nc(-c2ccc(OC(C)C)cn2)ns1 [Compound 189, 2-(3-(5-isoprop-oxypyridin-2-yl)-1,2,4-thiadiazol-5-ylamino)-N-methyl-nicotinamide]
20 |  | 500 to 5000 | CC(C)Oc1cnc(-c2nsc(Nc3ncccc3S(=O)(=O)N(C)C)n2)cc1C(F)(F)F [Compound 320, 2-(3-(5-isopropoxy-4-(trifluoromethyl)pyridin-2-yl)-1,2,4-thiadiazol-5-ylamino)-N,N-dimethyl-pyridine-3-sulfonamide]

Further lines, the compound ahead of its results:

Row | SMILES | IC50 [1] [nM] | IC50 [2] [nM]
21 | COc1ccc(-c2noc(Nc3cc(OC4CCOCC4)ccn3)n2)nc1 [Compound 47, 3-(5-methoxy-pyridin-2-yl)-N-(4-(tetrahydro-2H-pyran-4-yloxy)pyridin-2-yl)-1,2,4-oxadiazol-5-amine] | 500 to 5000 | 
22 | Cc1cccnc1Nc1nc(-c2ccc(OC(C)C)cn2)no1 [Compound 20, 3-(5-isopropoxy-pyridin-2-yl)-N-(3-methyl-pyridin-2-yl)-1,2,4-oxadiazol-5-amine] | < 200 | 
23 | CC(C)c1cnc(Nc2nc(-c3ccc(OC4CC4)cn3)ns2)cc1C(F)(F)F [Compound 95, 3-(5-cyclopropoxy-pyridin-2-yl)-N-(5-isopropyl-4-(trifluoromethyl)pyridin-2-yl)-1,2,4-thiadiazol-5-amine] | < 200 | 
24 | Cc1cccnc1Nc1nc(-c2cc(C#N)c(OC(C)C)cn2)ns1 [Compound 200, 5-isopropoxy-2-(5-(3-methylpyridin-2-ylamino)-1,2,4-thiadiazol-3-yl)isonicotino-nitrile] |  | 500 to 5000
25 | CC(=O)N(c1cccnc1Nc1nc(-c2ccc(OC(C)C)cn2)ns1)C(C)C [Compound 205, N-(2-(3-(5-isopropoxy-pyridin-2-yl)-1,2,4-thiadiazol-5-ylamino)pyridin-3-yl)-N-isopropy-lacetamide] |  | 500 to 5000
26 | Cc1cccnc1Nc1nnc(-c2ccc(OC(C)C)cn2)s1 [Compound 64, 5-(5-isopropoxy-pyridin-2-yl)-N-(3-methyl-pyridin-2-yl)-1,3,4-thiadiazol-2-amine] | 500 to 5000 | 
27 | Cc1cccnc1Nc1nc(-c2ccc(OC3CCN(C)CC3)cn2)n[nH]1 [Compound 71, 3-methyl-N-(3-(5-(1-methyl-piperidin-4-yloxy)pyridin-2-yl)-1H-1,2,4-triazol-5-yl) pyridin-2-amine] | 500 to 5000 | 
28 | FC(F)(F)c1cncc(Nc2nc(-c3ccccn3)ns2)c1 [Cmpd 3, 3-(pyridin-2-yl)-N-(5-(trifluoromethyl)pyridin-3-yl)-1,2,4-thiadiazol-5-amine] | 500 to 5000 | 
29 | CNc1cccnc1Nc1nc(-c2ccc(OC(C)C)cn2)ns1 [Compound 108, N2-(3-(5-isopropoxypyridin-2-yl)-1,2,4-thiadiazol-5-yl)-N3-methyl-pyridine-2,3-diamine] | 200 to 500 | 
30 | c1ccc(-c2ccnc(Nc3nc(-c4ccccn4)no3)c2)cc1 [Compound 246, N-(4-phenyl-pyridin-2-yl)-3-(pyridin-2-yl)-1,2,4-oxadiazol-5-amine] |  | 500 to 5000
31 | CC(=O)N(C)c1cc(C(F)(F)F)cnc1Nc1nc(-c2cc(C(F)(F)F)c(OC(C)C)cn2)ns1 [Compound 268, N-(2-(3-(5-isopropoxy-4-(trifluoromethyl)pyridin-2-yl)-1,2,4-thiadiazol-5-ylamino)-5-(trifluoromethyl)pyridin-3-yl)-N-methylacetamide] |  | 500 to 5000
32 | FC(F)(F)c1ccc(Nc2nc(-c3ccccn3)ns2)nc1 [Cmpd 1] | < 200 | 
33 | CC(C)Oc1cnc(-c2nsc(Nc3ncccc3C(C)C)n2)cc1C(F)(F)F [Compound 168, 3-(5-isoprop-oxy-4-(trifluoromethyl)pyridin-2-yl)-N-(3-isopropyl-pyridin-2-yl)-1,2,4-thiadiazol-5-amine] | < 200 | 
34 | CC(C)Oc1ccc(-c2nsc(Nc3nccnc3N(C)C)n2)nc1 [Compound 144, N2-(3-(5-isoprop-oxypyridin-2-yl)-1,2,4-thiadiazol-5-yl)-N3,N3-dimethyl-pyrazine-2,3-diamine] | 200 to 500 | 
35 | CC(C)Oc1cnc(-c2nsc(Nc3ncccc3C(=O)N(C)C)n2)cc1C(F)F [Compound 260, 2-(3-(4-(difluoro-methyl)-5-isopropoxy-pyridin-2-yl)-1,2,4-thiadiazol-5-ylamino)-N,N-dimethyl-nicotinamide] |  | 500 to 5000
36 | Cc1cc(C#N)cnc1Nc1nc(-c2ccc(OC(C)C)cn2)ns1 [Compound 231, 6-(3-(5-isoprop-oxypyridin-2-yl)-1,2,4-thiadiazol-5-ylamino)-5-methyl-nicotinonitrile] |  | 200 to 500
37 | Cc1cccnc1Nc1nc(-c2cc(OC3CC3)ccn2)ns1 [Compound 65, 3-(4-cycloprop-oxypyridin-2-yl)-N-(3-methyl-pyridin-2-yl)-1,2,4-thiadiazol-5-amine] | 500 to 5000 | 
38 | Cc1nccnc1Nc1nc(-c2ccc(OC(C)C)cn2)ns1 [Compound 135, 3-(5-isoprop-oxypyridin-2-yl)-N-(3-methyl-pyrazin-2-yl)-1,2,4-thia-diazol-5-amine] | < 200 | 

Reference: patent US11505548B2, “Heterocyclic compounds and their use for treatment of helminthic infections and diseases” (Celgene Corporation, priority 2019, dated 2022)
